Measurements published in patent US20260240842A1, “METHODS TO PREVENT THERAPY RESISTANCE IN MELANOMA VIA BLOCKING GENOMIC INSTABILITY” (THE REGENTS OF THE UNIVERSITY OF CALIFORNIA, priority 2022, published 2026).

Test system: M229 and M245 cell lines
Assay: WGS of short-term treated cell lines: treatment-specific ecDNA+CGR genomic spans
Type: cell-based, human
Settings: co-treatment with MAPKi for 10 to 11 days, FIG. 5H
Text: FIGS. 5A-5H. Resistance-driver ecDNAs and HSRs dynamically track with resistance and DNA-PKi prevents size-expansion of ecDNAs and CGRs early on MAPKi treatment. FIGS. 5A to 5C, Metaphase DNA-FISH of paired parental and acquired resistant BRAF^V600MUT (5A and 5B) or NRAS^Q61MUT (5C) cell lines without or with drug withdrawal showing ecDNA- or HSR-amplicons harboring BRAF, RAF1 or NRAS. Left, representative images; right, quantifications per cell. Ruler, 15 μm. P values (Unpaired two-tailed Student's t-test): *, p<0.05; **, p<0.01; ***, p<0.001. […] FIG. 5G: Representative images (left) and quantification (right) of metaphase DNA-FISH showing HSR harboring BRAF in M249 cells treated with vehicle or BRAFi+MEKi, with or without NU7026 and/or ABT888 for 31 days. […] FIG. 5H: Average total genomic spans of treatment-specific ecDNAs+CGRs in M229 and M245 cell lines (background ecDNA+CGR spans detected in vehicle-treated cells were filtered). […]
Genomic DNA (gDNA) and total RNA were extracted from frozen tumor tissue preserved in RNALater or snap-frozen tumor tissue using the QIAGEN AllPrep DNA/RNA Mini Kit and the Ambion mirVana miRNA Isolation Kit. […] After library construction, indexed libraries were quantified for equal molar pooling and paired-end sequenced with a read length of 2×150 bp on the Illumina NovaSeq 6000 S4 platform. […]

O=c1cc(N2CCOCC2)oc2c1ccc1ccccc12 [NU7026]
MAPKi-elicited treatment-specific ecDNA+CGR genomic spans: blunted the expansion of ecDNA+CGR genomic spans in both cell lines
